# Source: ChEMBL document CHEMBL3392977, “Synthesis and biological evaluation of adamantane-based aminophenols as a novel class of antiplasmodial agents” (Bioorg Med Chem Lett, 2015)
# Columns and labels:
# [1] = test system: Plasmodium falciparum; assay: Antiplasmodial activity against multidrug-resistant Plasmodium falciparum K1 by SYBR Green-based method; format: functional, organism-based
# [2] = test system: Plasmodium falciparum; assay: Antiplasmodial activity against Plasmodium falciparum NF54 by SYBR Green-based method; format: functional, organism-based
# [3] = test system: THP-1; assay: Cytotoxicity against human THP1 cells; format: cell-based
# [4] = Selectivity index, ratio of IC50 for human A549 cells to IC50 for Plasmodium falciparum; format: toxicity, cell-based; conditions: read-out: Ratio IC50
# [5] = test system: Liver microsome; assay: Clearance in human liver microsomes at 1 uM after 2 to 30 mins by LC-MS/MS analysis; format: ADME
# [6] = target: hERG (KCNH2) (Homo sapiens, UniProt Q12809); assay: Inhibition of human ERG at 11.1 uM
# Chain of hERG (KCNH2) (Q12809 whole entry): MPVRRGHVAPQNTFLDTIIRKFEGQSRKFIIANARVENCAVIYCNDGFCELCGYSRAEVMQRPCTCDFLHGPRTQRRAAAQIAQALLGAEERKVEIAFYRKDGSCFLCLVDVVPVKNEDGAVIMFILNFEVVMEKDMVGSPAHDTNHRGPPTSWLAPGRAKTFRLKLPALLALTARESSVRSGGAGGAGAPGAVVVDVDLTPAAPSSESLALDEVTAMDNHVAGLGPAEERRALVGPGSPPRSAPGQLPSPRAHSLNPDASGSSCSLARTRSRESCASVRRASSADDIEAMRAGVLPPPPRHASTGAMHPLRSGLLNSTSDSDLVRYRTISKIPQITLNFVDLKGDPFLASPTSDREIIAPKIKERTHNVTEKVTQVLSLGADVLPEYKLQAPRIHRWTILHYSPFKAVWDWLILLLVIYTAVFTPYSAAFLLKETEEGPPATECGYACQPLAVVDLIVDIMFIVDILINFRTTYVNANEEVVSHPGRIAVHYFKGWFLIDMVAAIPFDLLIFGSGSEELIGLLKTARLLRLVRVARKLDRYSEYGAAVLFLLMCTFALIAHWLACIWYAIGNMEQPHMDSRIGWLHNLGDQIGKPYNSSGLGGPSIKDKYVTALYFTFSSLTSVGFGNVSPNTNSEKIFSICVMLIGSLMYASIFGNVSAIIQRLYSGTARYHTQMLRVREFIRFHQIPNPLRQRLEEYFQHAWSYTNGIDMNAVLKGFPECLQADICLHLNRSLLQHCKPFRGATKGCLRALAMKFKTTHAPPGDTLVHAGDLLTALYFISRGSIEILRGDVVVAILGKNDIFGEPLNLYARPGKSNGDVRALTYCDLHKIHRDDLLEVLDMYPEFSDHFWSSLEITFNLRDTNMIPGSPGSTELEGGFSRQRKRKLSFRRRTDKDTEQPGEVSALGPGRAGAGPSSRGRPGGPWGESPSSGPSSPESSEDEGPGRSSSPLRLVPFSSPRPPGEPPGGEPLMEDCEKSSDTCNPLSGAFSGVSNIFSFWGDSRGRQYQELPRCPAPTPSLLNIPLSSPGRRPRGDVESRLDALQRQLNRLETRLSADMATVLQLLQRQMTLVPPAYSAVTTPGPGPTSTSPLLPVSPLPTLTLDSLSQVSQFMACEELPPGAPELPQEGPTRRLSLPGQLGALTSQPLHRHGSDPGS
# [7] = Solubility of the compound […]; format: physicochemical
# [8] = Clearance in rat hepatocytes assessed per million cells at 1 uM after 5 to 120 mins by LC-MS/MS analysis; format: ADME, cell-based, Hepatocyte; conditions: read-out: CLH
# [9] = Protein binding in human plasma; format: ADME, cell-free
# [10] = Octanol-water partition coefficient, log D by shake-flask method; format: physicochemical
Structure (SMILES),IC50 [1] [nM],IC50 [2] [nM],Activity [3],selectivity ratio [4],CLH [5] [µL/min],inhibition at 11.1 µM [6] [%],solubility [7] [µM],hepatocyte CLint at 1 µM [8] [µL/min/1e6 cells],fraction unbound [9],logD [10]
Cc1ccc(CNC2CCCCC2)c(O)c1,130,730,–,–,–,–,–,–,–,–
Cc1ccc(CNCC2CC2)c(O)c1,520,1400,–,–,–,–,–,–,–,–
Oc1cc(Cl)cc(Cl)c1CNCC12CC3CC(CC(C3)C1)C2,< 4,8,Non-toxic,> 6250,–,–,–,–,–,–
CN(Cc1ccccc1O)CC12CC3CC(CC(C3)C1)C2,270,> 500,–,–,–,–,–,–,–,–
CCNCc1ccc(C)cc1O,> 2000,> 2000,–,–,–,–,–,–,–,–
c1ccc(CNCC23CC4CC(CC(C4)C2)C3)cc1,> 2000,> 2000,–,–,–,–,–,–,–,–
C[C@@H]1CC[C@H]2[C@@H](C)C(=O)O[C@@H]3O[C@@]4(C)CC[C@@H]1[C@]32OO4 [ARTEMISININ],–,7,–,–,–,–,–,–,–,–
Oc1ccccc1CNCC12CC3CC(CC(C3)C1)C2,10,72,–,–,–,–,–,–,–,–
Oc1ccc(C(F)(F)F)cc1CNCC12CC3CC(CC(C3)C1)C2,12,100,Non-toxic,> 500,–,–,–,–,–,–
Cc1ccc(CNC2C3CC4CC(C3)CC2C4)c(O)c1 (stereo not drawn),15,43,–,–,–,–,–,–,–,–
Cc1ccc(CNCC23CC4CC(CC(C4)C2)C3)c(O)c1,< 4,6,–,–,–,–,–,–,–,–
COc1ccc(CNCC23CC4CC(CC(C4)C2)C3)c(O)c1,6,22,–,–,59,46.2,446,391,0.044,2.7
Oc1c(F)cc(Br)cc1CNCC12CC3CC(CC(C3)C1)C2,< 4,14,Non-toxic,> 3330,92,9.2,4,162,0.005,3.7
Cc1ccc(O)c(CNCC23CC4CC(CC(C4)C2)C3)c1,15,43,Non-toxic,> 1160,93,28.3,97,134,0.031,3.3
CC(NCC12CC3CC(CC(C3)C1)C2)c1cc(Br)ccc1O (stereo not drawn),12,41,Non-toxic,> 1220,–,–,–,–,–,–
O=C(NCC12CC3CC(CC(C3)C1)C2)c1ccccc1O,410,> 500,–,–,–,–,–,–,–,–
O=C1C(O)=C([C@H]2CC[C@H](c3ccc(Cl)cc3)CC2)C(=O)c2ccccc21 [ATOVAQUONE],2.3,–,–,–,–,–,–,–,–,–
COc1cccc(F)c1CNCC12CC3CC(CC(C3)C1)C2,1100,> 2000,–,–,–,–,–,–,–,–
Oc1ccc(Cl)cc1CNCC12CC3CC(CC(C3)C1)C2,< 4,5,Non-toxic,5290,80,26.8,43,208,0.004,4
Cc1ccc(O)c(CNCC23CC4CC(CC(C4)C2)C3)n1,7.7,32,Non-toxic,> 1560,13,7.9,237,49,0.122,3
Oc1ccc(Br)cc1CNCC12CC3CC(CC(C3)C1)C2,< 4,7,Non-toxic,4780,–,–,–,–,–,–
Oc1cccc(F)c1CNCC12CC3CC(CC(C3)C1)C2,8,28,–,–,–,–,–,–,–,–
